The test system of data set [1] is H1975 (lung adenocarcinoma, DM, L828R/T790M). The experiment in a line: Antiproliferative activity on H1975 cells (Alamar Blue). It is filed as cell-based. The conditions noted are these: for pIC50: Homo sapiens, NCI-H1975, H1975 cells; for SI IC50(A549)/IC50(DM): selectivity index, A549 vs H1975 cells. The essentials:
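IC50 was fitted with a four-parameter logistic model to Alamar Blue fluorescence (540/590 nm), read 3-5 h after dye addition. Before that, compounds acted on attached H1975 cells, 15*10^3 per well in 2% FBS RPMI-1640, for 72 h at 37 °C, DMSO no more than 1%.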

A short description of data set [2]: Enzyme stability in human liver S9 fractions. The conditions noted are these: 0.5 mg/mL pooled human liver S9 fractions; 10 μM compound; 37° C.; pH 7.4; read-out: Stability in liver S9 fractions, Clint. It is filed as in vitro ADME. The essentials: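 Compound at 10 μM was incubated at 37 °C with 0.5 mg/mL pooled human liver S9, 2 mM β-NAD and 4 mM MgCl2 in 0.1 M sodium phosphate, pH 7.4, then quenched with acetonitrile and analysed chromatographically. T½ and CLint were derived from the slope of log peak area versus time.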

[3] abbreviates: average values obtained in several tests, Table 16, read-out: H1975 (DM) IC50.
Where [4] appears, read: antiproliferative test, Table 15, read-out: IC50 H1975 (DM).

Each structure is given as a SMILES string. pIC50: −log10 of the molar value. Like-named read-outs stand apart in the source and are kept apart here. Marks after values point to notes of the source that are not given here.

With `C=CC(=O)Nc1cc(Nc2cc(C(=O)c3ccc(N4CC(OC)C4)cc3)ccn2)c(OC)cc1N(C)CCN(C)C` (racemic) [EGFR_3365_53, N-(2-((2-(dimethylamino)ethyl)(methyl)amino)-4-methoxy-5-((4-(4-(3-methoxyazetidin-1-yl)benzoyl)pyridin-2-yl)amino)phenyl)acrylamide], the pIC50 in data set [1] (setting [3]) and in data set [1] (setting [4]) was 7.35 each time. The “SI IC50(A549)/IC50(DM)” value in data set [1] came to 183. Besides, the Intrinsic clearance in human liver S9 fractions at 10 µM in data set [2] came out at 10.1 µL/min/mg.
Take `C=CC(=O)Nc1cc(Nc2nccc(C(=O)c3ccccc3C(F)(F)F)n2)c(OC)cc1N(C)CCN(C)C` [EGFR_3365, N-(2-((2-(dimethylamino)ethyl) (methyl)amino)-4-methoxy-5-((4-(2-(trifluoromethyl)benzoyl)pyrimidin-2-yl)amino)phenyl)acrylamide]: the pIC50 in data set [1] (setting [3]) and in data set [1] (setting [4]) was 7.22 in each case. Also, the “SI IC50(A549)/IC50(DM)” value in data set [1] is recorded as >166**. Moreover, in data set [2], the Intrinsic clearance in human liver S9 fractions at 10 µM came to 13.6 µL/min/mg.
On to `C=CC(=O)Nc1cc(Nc2cc(C(=O)c3ccccc3)ccn2)c(OC)cc1N(C)CCN(C)C` [EGFR_3365_3, N-(5-((4-benzoylpyridin-2-yl)amino)-2-((2-(dimethylamino)ethyl)(methyl)amino)-4-methoxyphenyl)acrylamide], for which the pIC50 in data set [1] (setting [3]) and in data set [1] (setting [4]) was 7.35 throughout. Moreover, the “SI IC50(A549)/IC50(DM)” value in data set [1] was 136.32.
For `C=CC(=O)Nc1cc(Nc2cc(C(=O)c3ccc(N(C)C)cc3)ccn2)c(OC)cc1N(C)CCN(C)C.O=C(O)C(F)(F)F` [EGFR_3365_4, N-(5-((4-(4-(dimethylamino)benzoyl)pyridin-2-yl)amino)-2-((2-(dimethylamino)ethyl) (methyl)amino)-4-methoxyphenyl)acrylamide 2,2,2-trifluoroacetate], the pIC50 in data set [1] (setting [3]) and in data set [1] (setting [4]) was 7.45 in each case. Also, the “SI IC50(A549)/IC50(DM)” value in data set [1] is listed as 152.17. Further, the Intrinsic clearance in human liver S9 fractions at 10 µM in data set [2] was found to be 0.9 µL/min/mg.
For `C=CC(=O)Nc1cc(Nc2nccc(C(=O)c3ccc(F)cc3)n2)c(OC)cc1N(C)CCN(C)C` [EGFR_3365_10, N-(2-((2-(dimethylamino)ethyl)(methyl)amino)-5-((4-(4-fluorobenzoyl)pyrimidin-2-yl)amino)-4-methoxyphenyl) acrylamide], the pIC50 in data set [1] (setting [3]) and in data set [1] (setting [4]) was 6.68 in each case. In data set [1], the “SI IC50(A549)/IC50(DM)” value is listed as 62.70. In addition, in data set [2], the Intrinsic clearance in human liver S9 fractions at 10 µM was determined as 6.8 µL/min/mg.
In the case of `C=CC(=O)Nc1cc(Nc2nccc(C(=O)c3ccccc3Br)n2)c(OC)cc1N(C)CCN(C)C` [EGFR_3365_12, N-(5-((4-(2-bromobenzoyl)pyrimidin-2-yl)amino)-2-((2-(dimethylamino)ethyl) (methyl)amino)-4-methoxyphenyl)acrylamide], the pIC50 in data set [1] (setting [3]) and in data set [1] (setting [4]) was 7.67 in each case. Moreover, in data set [1], the “SI IC50(A549)/IC50(DM)” value is recorded as 716.20.
As for `C=CC(=O)Nc1cc(Nc2nccc(C(=O)c3ccc(OCc4ccccc4)cc3)n2)c(OC)cc1N(C)CCN(C)C` [EGFR_3365_16, N-(5-((4-(4-(benzyloxy)benzoyl)pyrimidin-2-yl)amino)-2-((2-(dimethylamino)ethyl)(methyl)amino)-4-methoxyphenyl)acrylamide], the pIC50 in data set [1] (setting [3]) and in data set [1] (setting [4]) was 7.27 in each case. Also, the “SI IC50(A549)/IC50(DM)” value in data set [1] was determined as 41.10. Also, the Intrinsic clearance in human liver S9 fractions at 10 µM in data set [2] came out at 17.9 µL/min/mg.
For the compound `C=CC(=O)Nc1cc(Nc2nccc(C(=O)c3ccc(Oc4ccccc4)cc3)n2)c(OC)cc1N(C)CCN(C)C` [EGFR_3365_17, N-(2-((2-(dimethylamino)ethyl)(methyl)amino)-4-methoxy-5-((4-(4-phenoxybenzoyl)pyrimidin-2-yl)amino)phenyl)acrylamide], the pIC50 in data set [1] (setting [3]) and in data set [1] (setting [4]) was 6.41 in each case. The “SI IC50(A549)/IC50(DM)” value in data set [1] came to 6.08. Moreover, the Intrinsic clearance in human liver S9 fractions at 10 µM in data set [2] is 10.9 µL/min/mg.
Regarding `C=CC(=O)Nc1cc(Nc2nccc(C(=O)c3ccc(OC)cc3)n2)c(OC)cc1N(C)CCN(C)C` [EGFR_3365_28, N-(2-((2-(dimethylamino)ethyl)(methyl)amino)-4-methoxy-5-((4-(4-methoxybenzoyl)pyrimidin-2-yl)amino)phenyl)acrylamide], the pIC50 in data set [1] (setting [3]) and in data set [1] (setting [4]) was 7.77 throughout. Moreover, in data set [1], the “SI IC50(A549)/IC50(DM)” value is 213.04.
For `C=CC(=O)Nc1cc(Nc2nccc(C(=O)c3ccc(OCC)cc3)n2)c(OC)cc1N(C)CCN(C)C` [EGFR_3365_29, N-(2-((2-(dimethylamino)ethyl)(methyl)amino)-5-((4-(4-ethoxybenzoyl)pyrimidin-2-yl)amino)-4-methoxyphenyl) acrylamide], the pIC50 in data set [1] (setting [3]) and in data set [1] (setting [4]) was 7.57 throughout. The “SI IC50(A549)/IC50(DM)” value in data set [1] worked out at 595.06.
Regarding `C=CC(=O)Nc1cc(Nc2nccc(C(=O)c3ccc(OCCC)cc3)n2)c(OC)cc1N(C)CCN(C)C` [EGFR_3365_30, N-(2-((2-(dimethylamino)ethyl)(methyl)amino)-4-methoxy-5-((4-(4-propoxybenzoyl)pyrimidin-2-yl)amino)phenyl)acrylamide], the pIC50 is 7.78 in data set [1] (setting [3]) and 7.79 in data set [1] (setting [4]). Further, in data set [1], the “SI IC50(A549)/IC50(DM)” value was 337.72. The Intrinsic clearance in human liver S9 fractions at 10 µM in data set [2] is 1.2 µL/min/mg.
`C=CC(=O)Nc1cc(Nc2nccc(C(=O)c3ccc(OC(C)C)cc3)n2)c(OC)cc1N(C)CCN(C)C` [EGFR_3365_31, N-(2-((2-(dimethylamino)ethyl)(methyl)amino)-5-((4-(4-isopropoxybenzoyl)pyrimidin-2-yl)amino)-4-methoxyphenyl) acrylamide]: the pIC50 in data set [1] (setting [3]) was 8.13; in data set [1] (setting [4]) it was 8.14. For the same compound, the “SI IC50(A549)/IC50(DM)” value in data set [1] is given as 1509.19.
For the compound `C=CC(=O)Nc1cc(Nc2cc(C(=O)c3ccc(OCCC)cc3)ccn2)c(OC)cc1N(C)CCN(C)C` [EGFR_3365_50, N-(2-((2-(dimethylamino)ethyl)(methyl)amino)-4-methoxy-5-((4-(4-propoxybenzoyl)pyridin-2-yl)amino)phenyl)acrylamide], the pIC50 in data set [1] (setting [3]) and in data set [1] (setting [4]) was 7.32 in each case. Moreover, the “SI IC50(A549)/IC50(DM)” value in data set [1] is on record as 104. For the same compound, the Intrinsic clearance in human liver S9 fractions at 10 µM in data set [2] worked out at 1.1 µL/min/mg.
On to `C=CC(=O)Nc1cc(Nc2cc(C(=O)c3ccc(OC)cc3)ccn2)c(OC)cc1N(C)CCN(C)C` [EGFR_3365_51, N-(2-((2-(dimethylamino)ethyl)(methyl)amino)-4-methoxy-5-((4-(4-methoxybenzoyl)pyridin-2-yl)amino)phenyl)acrylamide], for which the pIC50 in data set [1] (setting [3]) and in data set [1] (setting [4]) was 7.47 each time. In data set [1], the “SI IC50(A549)/IC50(DM)” value came out at 340. For the same compound, the Intrinsic clearance in human liver S9 fractions at 10 µM in data set [2] came to 16.2 µL/min/mg.
For the compound `C=CC(=O)Nc1cc(Nc2cc(C(=O)c3ccc(OCC)cc3)ccn2)c(OC)cc1N(C)CCN(C)C` [EGFR_3365_52, N-(2-((2-(dimethylamino)ethyl)(methyl)amino)-5-((4-(4-ethoxybenzoyl)pyridin-2-yl)amino)-4-methoxyphenyl) acrylamide], the negative-log IC50 (pIC50) in data set [1] (setting [3]) and in data set [1] (setting [4]) was 7.18 throughout. Also, the “SI IC50(A549)/IC50(DM)” value in data set [1] worked out at 164. In data set [2], the Intrinsic clearance in human liver S9 fractions at 10 µM came to 16.6 µL/min/mg.
Take `C=CC(=O)Nc1cc(Nc2cc(C(=O)c3ccc(N4CCN(C)CC4)cc3)ccn2)c(OC)cc1N(C)CCN(C)C` [EGFR_3365_55, N-(2-((2-(dimethylamino)ethyl)(methyl)amino)-4-methoxy-5-((4-(4-(4-methylpiperazin-1-yl)benzoyl)pyridin-2-yl)amino)phenyl)acrylamide]: the pIC50 in data set [1] (setting [3]) and in data set [1] (setting [4]) was 6.68 throughout. The “SI IC50(A549)/IC50(DM)” value in data set [1] stood at 55. Moreover, in data set [2], the Intrinsic clearance in human liver S9 fractions at 10 µM was 5 µL/min/mg.
With `C=CC(=O)Nc1cc(Nc2cc(C(=O)c3ccc(N4CCCC4)cc3)ccn2)c(OC)cc1N(C)CCN(C)C` [EGFR_3365_56, N-(2-((2-(dimethylamino)ethyl)(methyl)amino)-4-methoxy-5-((4-(4-(pyrrolidin-1-yl)benzoyl)pyridin-2-yl)amino)phenyl)acrylamide], the pIC50 in data set [1] (setting [3]) and in data set [1] (setting [4]) was 7.53 throughout. For the same compound, in data set [1], the “SI IC50(A549)/IC50(DM)” value was 156. The Intrinsic clearance in human liver S9 fractions at 10 µM in data set [2] is 9.1 µL/min/mg.
Take `C=CC(=O)Nc1cc(Nc2nccc(C(=O)c3ccc(N4CCC4)cc3)n2)c(OC)cc1N(C)CCN(C)C` [EGFR_3365_58, N-(5-((4-(4-(azetidin-1-yl)benzoyl)pyrimidin-2-yl)amino)-2-((2-(dimethylamino)ethyl)(methyl)amino)-4-methoxyphenyl)acrylamide]: the pIC50 in data set [1] (setting [3]) was 8.09; in data set [1] (setting [4]), 7.98. Also, the “SI IC50(A549)/IC50(DM)” value in data set [1] is recorded as >1235. Also, the Intrinsic clearance in human liver S9 fractions at 10 µM in data set [2] was found to be 17.7 µL/min/mg.
As to `C=CC(=O)Nc1cc(Nc2nccc(C(=O)c3cc4ccccc4n3C)n2)c(OC)cc1N(C)CCN(C)C` [EGFR_3365_94, N-(2-((2-(dimethylamino)ethyl) (methyl)amino)-4-methoxy-5-((4-(1-methyl-1H-indole-2-carbonyl)pyrimidin-2-yl)amino)phenyl)acrylamide], the pIC50 in data set [1] (setting [3]) and in data set [1] (setting [4]) was 8.18 each time. Also, the “SI IC50(A549)/IC50(DM)” value in data set [1] amounted to 1037.

The values above are taken from patent US20200339544A1 (JOINT STOCK COMPANY "BIOCAD", priority 2017, published 2020).
